Experimental data taken from US8846746B2, “Pyrazole compound and pharmaceutical use thereof” (Japan Tobacco Inc., priority 2011, dated 2014).

Each compound was assayed against human SGLT1 (Homo sapiens (Human), UniProt P13866) (assay: SGLT1 inhibitory activity: 14C-AMG uptake into CHO-K1 cell line stably expressing human SGLT1). Conditions: 14C-AMG uptake, CHO-K1 cells stably expressing human SGLT1.
Format: cell-based
Procedure, shortened: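 Human SGLT1 was stably expressed in CHO-K1 cells. Cells were first held 20 min in sodium-free buffer, then exposed to compound in Na(+)/BSA buffer with tracer and AMG (2 mM in the added solution).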

human SGLT1, sequence (P13866 whole entry): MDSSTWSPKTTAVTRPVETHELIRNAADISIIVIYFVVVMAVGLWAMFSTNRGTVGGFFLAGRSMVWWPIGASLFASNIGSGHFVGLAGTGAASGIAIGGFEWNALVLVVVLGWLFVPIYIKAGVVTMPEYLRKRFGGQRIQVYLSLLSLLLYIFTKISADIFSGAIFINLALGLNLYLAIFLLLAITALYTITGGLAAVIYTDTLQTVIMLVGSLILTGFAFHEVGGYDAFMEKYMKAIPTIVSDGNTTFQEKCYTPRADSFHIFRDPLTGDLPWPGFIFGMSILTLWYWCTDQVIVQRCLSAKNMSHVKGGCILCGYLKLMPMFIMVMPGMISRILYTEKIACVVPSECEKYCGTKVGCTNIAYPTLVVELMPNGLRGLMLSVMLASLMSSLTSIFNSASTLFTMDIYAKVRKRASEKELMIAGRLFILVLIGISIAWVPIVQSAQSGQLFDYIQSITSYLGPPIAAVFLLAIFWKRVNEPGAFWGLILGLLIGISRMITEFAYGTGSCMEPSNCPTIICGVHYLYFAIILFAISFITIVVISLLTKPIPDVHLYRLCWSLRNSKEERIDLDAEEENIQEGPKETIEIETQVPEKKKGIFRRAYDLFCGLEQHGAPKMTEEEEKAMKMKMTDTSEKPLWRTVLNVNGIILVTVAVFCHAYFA

First: CCCc1cccc(-c2cc(NC(=O)[C@@H]3CNC(=O)C3)nn2-c2ccc(OC(C)C)cc2)c1 [Example 373]
Second: CCCOc1ccc(-n2nc(NC(=O)[C@@H]3CNC(=O)C3)cc2-c2cccc(CCC)c2)cc1 [Example 383]
The IC50 of the first is 2.6-fold lower: 5.3 nM for the first, 14 nM for the second.

`CCCc1cccc(-c2cc(NC(=O)[C@@H]3CNC(=O)C3)nn2-c2ccc(OCCC(F)(F)F)cc2)c1` [Example 374] and `CCCc1cccc(-c2cc(NC(=O)[C@@H]3CNC(=O)C3)nn2-c2ccc(OCC(F)(F)F)cc2)c1` [Example 375] are within 1.5-fold of each other in IC50: 8.8 nM for the first, 13 nM for the second.

`CCCc1cccc(-c2cc(NC(=O)[C@@H]3CNC(=O)C3)nn2-c2ccccc2OC)c1` [Example 376] and `CCCc1cccc(-c2cc(NC(=O)[C@@H]3CNC(=O)C3)nn2-c2ccccc2OC(C)C)c1` [Example 378] are within 1.5-fold of each other in IC50: 31 nM for the first, 21 nM for the second.

`CCCc1cccc(-c2cc(NC(=O)[C@@H]3CNC(=O)C3)nn2-c2cccc(OCC)c2)c1` [Example 379] and `CCCOc1cccc(-n2nc(NC(=O)[C@@H]3CNC(=O)C3)cc2-c2cccc(CCC)c2)c1` [Example 380] are within 1.5-fold of each other in IC50: 5.25 nM for the first, 6.75 nM for the second.

`CCCc1cccc(-c2cc(NC(=O)[C@@H]3CNC(=O)C3)nn2-c2cccc(OCC(C)C)c2)c1` [Example 381] and `CCCc1cccc(-c2cc(NC(=O)[C@@H]3CNC(=O)C3)nn2-c2cccc(OCCO)c2)c1` [Example 408] are within 1.5-fold of each other in IC50: 11.5 nM for the first, 8 nM for the second.

`CCCc1cccc(-c2cc(NC(=O)[C@@H]3CNC(=O)C3)nn2-c2cccc(OC3CCCC3)c2)c1` [Example 382] and `CCCc1cccc(-c2cc(NC(=O)[C@@H]3CNC(=O)C3)nn2-c2cccc(OC3CCC3)c2)c1` [Example 412] are within 1.5-fold of each other in IC50: 12 nM for the first, 10.9 nM for the second.

First: CCCc1cccc(-c2cc(NC(=O)[C@@H]3CNC(=O)N3CC(F)(F)F)nn2-c2ccccc2)c1 [Example 384]
Second: CCCc1cccc(-c2cc(NC(=O)[C@H]3CNC(=O)N3CC(F)(F)F)nn2-c2ccccc2)c1 [Example 385]
The IC50 of the first is 6.9-fold higher: 48 nM for the first, 7 nM for the second. The second is the more potent here.

Compared with `CCCc1cccc(-c2cc(NC(=O)[C@@H]3CNC(=O)C3)nn2-c2ccc(OC(F)(F)F)cc2)c1` [Example 386], `CCCc1cccc(-c2cc(NC(=O)[C@@H]3CNC(=O)C3)nn2-c2cccc(OC(F)(F)F)c2)c1` [Example 400] is 2.3-fold lower in IC50: 35 nM for the first, 15 nM for the second.

`CCCc1cccc(-c2cc(NC(=O)[C@@H]3CNC(=O)C3)nn2-c2cccc(OCC(F)(F)F)c2)c1` [Example 387] and `CCCc1cccc(-c2cc(NC(=O)[C@@H]3CNC(=O)C3)nn2-c2cccc(C(F)(F)F)c2)c1` [Example 401] are within 1.5-fold of each other in IC50: 12.5 nM for the first, 13 nM for the second.

Compared with `CCCc1cccc(-c2cc(NC(=O)[C@@H]3CNC(=O)C3)nn2-c2cccc(OC(=O)OC(C)(C)C)c2)c1` [Example 388], `CCCc1cccc(-c2cc(NC(=O)[C@@H]3CNC(=O)C3)nn2-c2cccc(OC(C)(C)C)c2)c1` [Example 435] is 1.6-fold lower in IC50: 5.35 nM for the first, 3.45 nM for the second. The second is the more potent here.

Compared with `CCCc1cccc(-c2cc(NC(=O)[C@@H]3CNC(=O)C3)nn2-c2ccc(F)c(OC)c2)c1` [Example 389], `CCCc1cccc(-c2cc(NC(=O)[C@@H]3CNC(=O)C3)nn2-c2ccc(F)c(OCC)c2)c1` [Example 390] is 1.6-fold lower in IC50: 15 nM for the first, 9.4 nM for the second.

First: CCCc1cccc(-c2cc(NC(=O)[C@@H]3CNC(=O)C3)nn2-c2ccc(F)c(OC(C)C)c2)c1 [Example 391]
Second: CCCc1cccc(-c2cc(NC(=O)[C@@H]3CNC(=O)C3)nn2-c2ccc(F)c(OCCO)c2)c1 [Example 415]
The IC50 of the first is 3.5-fold lower: 3.75 nM for the first, 13 nM for the second.

`CCCc1cccc(-c2cc(NC(=O)[C@@H]3CNC(=O)C3)nn2-c2cccc(C(C)C)c2)c1` [Example 392] and `CCCc1cccc(-c2cc(NC(=O)[C@@H]3CNC(=O)C3)nn2-c2cccc(CC)c2)c1` [Example 393] are within 1.5-fold of each other in IC50: 5.7 nM for the first, 5.25 nM for the second.

Going from `CCCc1cccc(-c2cc(NC(=O)[C@@H]3CNC(=O)C3)nn2-c2cccc(C(C)(C)C)c2)c1` [Example 394] to `CCCc1cccc(-c2cc(NC(=O)[C@@H]3CNC(=O)C3)nn2-c2cccc(OCCOC)c2)c1` [Example 406], the IC50 falls from 15 nM to 7.85 nM (1.9-fold).

Going from `CCCO[C@H](C)c1cccc(-c2cc(NC(=O)[C@@H]3CNC(=O)C3)nn2-c2ccccc2)c1` [Example 395] to `CCCO[C@@H](C)c1cccc(-c2cc(NC(=O)[C@@H]3CNC(=O)C3)nn2-c2ccccc2)c1` [Example 396], the IC50 rises from 13 nM to 31 nM (2.4-fold).

Compared with `O=C1C[C@H](C(=O)Nc2cc(-c3cccc(COC(F)(F)F)c3)n(-c3ccccc3)n2)CN1` [Example 399], `COc1cccc(-n2nc(NC(=O)[C@@H]3CNC(=O)C3)cc2-c2cccc(COCC(F)(F)F)c2)c1` [Example 446] is 3.4-fold lower in IC50: 19 nM for the first, 5.6 nM for the second. The second is the more potent here.

`CCCc1cccc(-c2cc(NC(=O)[C@@H]3CNC(=O)C3)nn2-c2ccc(C(F)(F)F)cc2)c1` [Example 402] and `CCCc1cccc(-c2cc(NC(=O)[C@@H]3CNC(=O)C3)nn2-c2ccc(CC)cc2)c1` [Example 403] are within 1.5-fold of each other in IC50: 17 nM for the first, 12 nM for the second.

First: CCCc1cccc(-c2cc(NC(=O)[C@@H]3CNC(=O)C3)nn2-c2cccc(OCCOCc3ccccc3)c2)c1 [Example 407]
Second: C[C@@H](OCc1cccc(-c2cc(NC(=O)[C@@H]3CNC(=O)C3)nn2-c2cccc(OCc3ccccc3)c2)c1)C(F)(F)F [Example 438]
The IC50 of the first is 2.5-fold higher: 7.6 nM for the first, 3.1 nM for the second.

`O=C1C[C@H](C(=O)Nc2cc(-c3cccc(COC(C(F)(F)F)C(F)(F)F)c3)n(-c3ccc(F)cc3)n2)CN1` [Example 409] and `C[C@@H](OCc1cccc(-c2cc(NC(=O)[C@@H]3CNC(=O)C3)nn2-c2cccc(O)c2)c1)C(F)(F)F` [Example 441] are within 1.5-fold of each other in IC50: 12 nM for the first, 9 nM for the second.

Going from `Cc1cc(CO[C@H](C)C(F)(F)F)cc(-c2cc(NC(=O)[C@@H]3CNC(=O)C3)nn2-c2ccccc2)c1` [Example 410] to `Cc1cc(-c2cc(NC(=O)[C@@H]3CNC(=O)C3)nn2-c2ccccc2)cc(C(C)(C)C)c1` [Example 411], the IC50 falls from 22 nM to 4.4 nM (5-fold). The second is the more potent here.

Going from `CCCc1cccc(-c2cc(NC(=O)[C@@H]3CNC(=O)C3)nn2-c2ccc(F)c(OCCOC)c2)c1` [Example 414] to `CCCOc1cc(-n2nc(NC(=O)[C@@H]3CNC(=O)C3)cc2-c2cccc(COCC(F)(F)F)c2)ccc1F` [Example 419], the IC50 falls from 11.4 nM to 4.75 nM (2.4-fold).

Compared with `COc1cc(-n2nc(NC(=O)[C@@H]3CNC(=O)C3)cc2-c2cccc(COCC(F)(F)F)c2)ccc1F` [Example 416], `CCOc1cc(-n2nc(NC(=O)[C@@H]3CNC(=O)C3)cc2-c2cccc(COCC(F)(F)F)c2)ccc1F` [Example 417] is 3.5-fold lower in IC50: 15 nM for the first, 4.3 nM for the second. The second is the more potent here.

`CC(C)Oc1cc(-n2nc(NC(=O)[C@@H]3CNC(=O)C3)cc2-c2cccc(COCC(F)(F)F)c2)ccc1F` [Example 418] and `CC(C)Oc1cccc(-n2nc(NC(=O)[C@@H]3CNC(=O)C3)cc2-c2cccc(COCC(F)(F)F)c2)c1` [Example 449] are within 1.5-fold of each other in IC50: 2.35 nM for the first, 2.3 nM for the second.

Going from `COc1cc(-n2nc(NC(=O)[C@@H]3CNC(=O)C3)cc2-c2cccc(OC(F)(F)F)c2)ccc1F` [Example 420] to `CCOc1cc(-n2nc(NC(=O)[C@@H]3CNC(=O)C3)cc2-c2cccc(OC(F)(F)F)c2)ccc1F` [Example 421], the IC50 falls from 47 nM to 20 nM (2.4-fold).

`CC(C)Oc1cc(-n2nc(NC(=O)[C@@H]3CNC(=O)C3)cc2-c2cccc(OC(F)(F)F)c2)ccc1F` [Example 422] and `CCCOc1cc(-n2nc(NC(=O)[C@@H]3CNC(=O)C3)cc2-c2cccc(OC(F)(F)F)c2)ccc1F` [Example 423] are within 1.5-fold of each other in IC50: 14 nM for the first, 16 nM for the second.

First: O=C1C[C@H](C(=O)Nc2cc(-c3cccc(OC(F)(F)F)c3)n(-c3cccc(OCc4ccccc4)c3)n2)CN1 [Example 436]
Second: CCOc1cccc(-n2nc(NC(=O)[C@@H]3CNC(=O)C3)cc2-c2cccc(OC(F)(F)F)c2)c1 [Example 443]
The IC50 of the first is 1.7-fold higher: 19 nM for the first, 11 nM for the second. The second is the more potent here.

Going from `COc1cccc(-n2nc(NC(=O)[C@@H]3CNC(=O)C3)cc2-c2cccc(OC(F)(F)F)c2)c1` [Example 442] to `CC(C)Oc1cccc(-n2nc(NC(=O)[C@@H]3CNC(=O)C3)cc2-c2cccc(OC(F)(F)F)c2)c1` [Example 445], the IC50 falls from 15 nM to 6.7 nM (2.2-fold). The second is the more potent here.

Going from `CCCOc1cccc(-n2nc(NC(=O)[C@@H]3CNC(=O)C3)cc2-c2cccc(OC(F)(F)F)c2)c1` [Example 444] to `CCCOc1cccc(-n2nc(NC(=O)[C@@H]3CNC(=O)C3)cc2-c2cccc(COCC(F)(F)F)c2)c1` [Example 448], the IC50 falls from 10 nM to 4.3 nM (2.3-fold).

Compared with `CCOc1cccc(-n2nc(NC(=O)[C@@H]3CNC(=O)C3)cc2-c2cccc(COCC(F)(F)F)c2)c1` [Example 447], `COCCOc1cccc(-n2nc(NC(=O)[C@@H]3CNC(=O)C3)cc2-c2cccc(COCC(F)(F)F)c2)c1` [Example 450] is 1.7-fold higher in IC50: 4.7 nM for the first, 8.1 nM for the second.

Same assay, conditions: CHO-K1, at 0.1 uM

Going from `CCCc1cccc(-c2cc(NC(=O)C3CNC(=O)C3(C)C)nn2-c2ccccc2)c1` (stereo not drawn) [Example 398] to `CCCc1cccc(-c2cc(NC(=O)C3CC(=O)NC3C)nn2-c2ccccc2)c1` (stereo not drawn) [Example 405], the inhibition at 0.1 µM rises from 7% to 29%.

Compared with `CC(C)(C)OC(=O)c1cccc(-c2cc(NC(=O)[C@@H]3CNC(=O)C3)nn2-c2ccccc2)c1` [Example 413], `CC(C)NC(=O)c1cccc(-c2cc(NC(=O)[C@@H]3CNC(=O)C3)nn2-c2ccccc2)c1` [Example 431] is lower in inhibition at 0.1 µM: 48% for the first, 21% for the second.

First: C[C@@H](OCc1ccc(F)c(-c2cc(NC(=O)[C@@H]3CNC(=O)C3)nn2-c2ccccc2)c1)C(F)(F)F [Example 427]
Second: O=C1C[C@H](C(=O)Nc2cc(-c3cccc(C(=O)NCC(F)(F)F)c3)n(-c3ccccc3)n2)CN1 [Example 433]
The inhibition at 0.1 µM of the first is higher: 49% for the first, 8% for the second.

First: O=C1C[C@H](C(=O)Nc2cc(-c3cccc(CN4CCCC4)c3)n(-c3ccccc3)n2)CN1 [Example 428]
Second: CCCNC(=O)c1cccc(-c2cc(NC(=O)[C@@H]3CNC(=O)C3)nn2-c2ccccc2)c1 [Example 429]
The inhibition at 0.1 µM of the first is lower: 31% for the first, 40% for the second.

Compared with `CCCN(C)C(=O)c1cccc(-c2cc(NC(=O)[C@@H]3CNC(=O)C3)nn2-c2ccccc2)c1` [Example 430], `CC(C)N(C)C(=O)c1cccc(-c2cc(NC(=O)[C@@H]3CNC(=O)C3)nn2-c2ccccc2)c1` [Example 432] is higher in inhibition at 0.1 µM: 8% for the first, 14% for the second.

For `O=C1C[C@H](C(=O)Nc2cc(-c3cccc(OC(F)(F)F)c3)n(-c3cccc(O)c3)n2)CN1` [Example 439], the inhibition at 0.1 µM was 45%.
